A short description of data set [1]: PK of bendamustine capsule formulations vs 60 min IV infusion in beagle dogs, cross over (Example 7). The settings on record: dog, plasma. The source says: As bioanalytical method a fast and reliable method was used to determine bendamustine and its main metabolite γ-hydroxybendamustine (M3 metabolite) simultaneously in plasma of different species (Srinivas N R et al., Drug Res (Stuttg), 2016, 66(7), 351-356; Chandrashekar D V et al., Drug Res (Stuttg), 2017, doi: 10.1055/s-0043-108124).
The oral bioavailability and the PK profile of formulations of bendamustine with 2-hydroxypropyl-β-cyclodextrin and β-cyclodextrin were compared in beagle dogs.
Capsules with an amount of bendamustine hydrochloride for each of the two formulations to reach a dose of 12 mg/kg were administered to beagle dogs using a cross over design and compared to 60 min IV infusion administration. Capsule formulations were stored between 2-8° C. The respective IV formulation was prepared fresh immediately prior to dosing.

For data set [2] the following is noted: bendamustine itself, Preiss R et al. 1985; cited from earlier work.

In data set [1], `Cl.Cn1c(CCCC(=O)O)nc2cc(N(CCCl)CCCl)ccc21` [bendamustine, 4-(5-(bis-(2-chloro-ethyl)-amino)-1-methyl-1H-benzimidazol-2-yl)-butyric acid hydrochloride] displayed an AUC of 3800 ng·h/mL and a peak concentration (Cmax) of 4300 ng/mL. Moreover, in data set [2], the oral bioavailability result is “about 56%”.
